The record followed here is patent US8779142B2, “Azabicyclo compound and salt thereof” (Taiho Pharmaceutical Co., Ltd., priority 2009, dated 2014).

pIC50: −log10 of the molar value. Like-named read-outs stand apart in the source and are kept apart here.

Assay [1] has as its target human HSP90 alpha protein (HSP90 N-terminal protein, amino acids 2-236) (Homo sapiens (Human), UniProt P07900). In words: Measurement of HSP90-binding activity (AlphaScreen competitive assay, biotin-labeled geldanamycin). The following applies: read-out: HSP-binding activity IC50.
Assay [2] has as its system SK-BR-3 cells. In words: Measurement of cell growth inhibition (crystal violet staining method). The assay is classed as cell-based.
Setting [3] is: concentration inhibiting binding of biotin-labeled geldanamycin (40 nM) to purified HSP90 to 50% of control.
The mark [4] stands for this setting: Homo sapiens, breast cancer SK-BR-3 cells, 72 hr culture with test substance.

For the molecule `CC(C)c1nn(-c2ccc(C(N)=O)c(NC3CCN(C(=O)c4cc(O)nc(O)n4)CC3)c2)c2nccc(-c3cnc4ccccc4c3)c12` [Example 78, 2-{1-(2,6-Dihydroxypyrimidine-4-carbonyl)piperidin-4-ylamino}-4-{3-isopropyl-4-(quinolin-3-yl)-1H-pyrazolo[3,4-b]pyridin-1-yl}benzamide], the values for the pIC50 in assay [1] (setting [3]) and in assay [2] (setting [4]) were 6.44 and 6.19, respectively.
On the same counts, the results for `CC(C)c1nn(-c2ccc(C(N)=O)cc2N)c2nccc(-n3cnc(-c4cnn(C)c4)c3)c12` [Example 107, 3-Amino-4-{3-isopropyl-4-(4-(1-methyl-1H-pyrazol-4-yl)-1H-imidazol-1-yl)-1H-pyrazolo[3,4-b]pyridin-1-yl}benzamide] are 6.70 and 6.05.
For the molecule `CC(C)c1nn(-c2ccc(C(N)=O)c(N[C@H]3CC[C@H](O)CC3)c2)c2cncc(-c3cnc4ccccc4c3)c12` [Example 5, 2-(Trans-4-hydroxycyclohexylamino)-4-{3-isopropyl-4-(quinolin-3-yl)-1H-pyrazolo[3,4-c]pyridin-1-yl}benzamide], the negative-log IC50 (pIC50) in assay [1] is 6.80; in assay [2] (Homo sapiens, SK-BR-3, 72 h), 6.96.
For `Cn1cc(-c2cn(-c3ccnc4c3c(C(F)(F)F)nn4-c3ccc(C(N)=O)cc3NC3CCCC3)cn2)cn1` [Example 166, 3-(Cyclopentylamino)-4-{4-(4-(1-methyl-1H-pyrazol-4-yl)-1H-imidazol-1-yl)-3-(trifluoromethyl)-1H-pyrazolo[3,4-b]pyridin-1-yl}benzamide], the pIC50 is 6.85 in assay [1] (setting [3]) and 6.96 in assay [2] (setting [4]).
Take `CC(C)c1nn(-c2ccc(C(N)=O)c(NC3CCC(O)CC3)c2)c2nccc(-n3cnc(-c4cnn(CO)c4)c3)c12` (centres unmarked) [Example 96, 2-(4-Hydroxycyclohexylamino)-4-{4-(4-(1-hydroxymethyl)-(1H-pyrazol-4-yl)-1H-imidazol-1-yl)-3-isopropyl-1H-pyrazolo[3,4-b]pyridin-1-yl}benzamide]: the pIC50 in assay [1] (setting [3]) is 7.22; in assay [2] (breast cancer SK-BR-3 cells, 72 hr culture with test substance), 7.22.
`CC(C)Nc1cc(-n2nc(C(F)(F)F)c3c(-n4cnc(-c5cccnc5)c4)ccnc32)ccc1C(N)=O` [Example 179, 2-(Isopropylamino)-4-{4-(4-(pyridin-3-yl)-1H-imidazol-1-yl)-3-(trifluoromethyl)-1H-pyrazolo[3,4-b]pyridin-1-yl}benzamide]: the pIC50 in assay [1] (setting [3]) was 6.42; in assay [2] (setting [4]) it was 7.15.
On the same counts, the results for `CC(C)c1nn(-c2ccc(C(N)=O)cc2Cl)c2nccc(-n3cnc(-c4ccc(C(=O)N(C)C)cc4)c3)c12` [Example 151, 4-{1-(1-(4-Carbamoyl-2-chlorophenyl)-3-isopropyl-1H-pyrazolo[3,4-b]pyridin-4-yl)-1H-imidazol-4-yl}-N,N-dimethylbenzamide] are 6.18 and 5.81.
On the same counts, the results for `CC(C)c1nn(-c2ccc(C(N)=O)c(N(O)C3CCCCC3)c2)c2nccc(-n3cnc(-c4cnn(Cc5ccccc5)c4)c3)c12` [Example 93, 2-(Hydroxycyclohexylamino)-4-{3-isopropyl-4-(4-(1-benzyl-1H-pyrazol-4-yl)-1H-imidazol-1-yl)-1H-pyrazolo[3,4-b]pyridin-1-yl}benzamide] are 6.49 and 7.15.
For the molecule `CCc1cc(C(N)=O)ccc1-n1nc(C(C)C)c2c(-n3cnc(-c4cnn(C)c4)c3)ccnc21` [Example 102, 3-Ethyl-4-{3-isopropyl-4-(4-(1-methyl-1H-pyrazol-4-yl)-1H-imidazol-1-yl)-1H-pyrazolo[3,4-b]pyridin-1-yl}benzamide], the figures for the negative logarithm of the IC50 (pIC50) in assay [1] (setting [3]) and in assay [2] (setting [4]) were 6.68 and 6.77, respectively.
For `CC(C)c1nn(-c2ccc(C(N)=O)c(N[C@H]3CC[C@H](O)CC3)c2)c2nccc(-c3cnc4c(ccn4C)c3)c12` [Example 14, 2-(Trans-4-hydroxycyclohexylamino)-4-{3-isopropyl-4-(1-methyl-1H-pyrrolo[2,3-b]pyridin-5-yl)-1H-pyrazolo[3,4-b]pyridin-1-yl}benzamide], in that order: 6.16 and 6.74.
